This note sets out measurements from patent US12495798B2, “Nicotinamide compound and herbicidal composition comprising compound” (KOREA RESEARCH INSTITUTE OF CHEMICAL TECHNOLOGY, priority 2019, dated 2025).

As usually defined, the plant injury is the degree to which the test organism was suppressed or injured, in per cent.

Assay type in all cases: in vivo
In experiment [1] the test system is velvetleaf. Briefly: Herbicidal activity test against upland field weeds (foliar treatment test). Particulars: Abutilon theophrasti, 50 g ai/ha, scale 0-100, read-out: Foliar treatment herbicidal activity, velvet leaf. The gist of the method: (§1)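 Greenhouse-grown plants (30±5 °C, 14/10 h light/dark) foliar hand-sprayed with compound in 50% acetone, 0.1% Tween-20 at 50 or 75 g a.i./ha. Control visually scored 0 (none) to 100 (complete) versus untreated after 14 days, or 21 days if needed.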

For experiment [2], the system named is indian jointvetch. Briefly: Herbicidal activity test against upland field weeds (soil treatment test). Set-up: key to Soil treatment herbicidal activity, Indian jointvetch: 0 (no control); 100 (complete control). Particulars: 50 g ai/ha, scale 0 (no control) to 100 (complete control). The method in brief: (§2)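 Pre-emergence soil surface spray, day after sowing, into sandy loam pots with fertilizer; compounds at 50 or 75 g a.i./ha in 50% acetone, 0.1% Tween-20. Greenhouse at 30±5 °C, 14/10 h light/dark; visual control rated 0–100 against untreated after 14 days (21 if needed).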

Experiment [3] has as its system indian jointvetch. Nature of the experiment: Herbicidal activity test against upland field weeds (foliar treatment test). Particulars: 50 g ai/ha, scale 0-100. The gist of the method: as §1
Experiment [4] concerns barnyard grass. Briefly: Herbicidal activity test against upland field weeds (soil treatment test). The note with it: 50 g ai/ha, scale 0 (no control) to 100 (complete control). Set-up: key to Soil treatment herbicidal activity, barnyard grass: 0 (no control); 100 (complete control). The gist of the method: as §2
Experiment [5] concerns quack grass. The experiment is described as above. Set-up: key to Soil treatment herbicidal activity, quack grass: 0 (no control); 100 (complete control). Particulars: 50 g ai/ha, scale 0 (no control) to 100 (complete control). The method in brief: as §2
For experiment [6], the system named is bindweed. Described as above. Particulars: 50 g ai/ha, scale 0 (no control) to 100 (complete control). The gist of the method: as §2
The test system of experiment [7] is sorghum. Nature of the experiment: Herbicidal activity test against upland field weeds (foliar treatment test). The note with it: Sorghum, 50 g ai/ha, scale 0-100. The gist of the method: as §1
Experiment [8] deals with barnyard grass. The description is as above. The note with it: Echinochloa crus-galli, 50 g ai/ha, scale 0-100. The method in brief:
as §1

In experiment [9] the test system is fall panicum. Described as above. The note with it: Panicum dichotomiflorum, 50 g ai/ha, scale 0-100. The method in brief:
as §1

The test system of experiment [10] is crabgrass. Briefly: Herbicidal activity test against upland field weeds (soil treatment test). Details: key to Soil treatment herbicidal activity, Crabgrass: 0 (no control); 100 (complete control). Particulars: 50 g ai/ha, scale 0 (no control) to 100 (complete control). The gist of the method:
as §2

Experiment [11] has as its system velvetleaf. The experiment is described as above. Details: key to Soil treatment herbicidal activity, velvet leaf: 0 (no control); 100 (complete control). Particulars: 50 g ai/ha, scale 0 (no control) to 100 (complete control). The gist of the method:
as §2

Experiment [12] has as its system cocklebur. Nature of the experiment: Herbicidal activity test against upland field weeds (foliar treatment test). The note with it: Xanthium strumarium, 50 g ai/ha, scale 0-100. The method in brief: as §1
Experiment [13] deals with fall panicum. Briefly: Herbicidal activity test against upland field weeds (soil treatment test). Particulars: 50 g ai/ha, scale 0 (no control) to 100 (complete control); for pest or weed control at 50 g/ha: Panicum dichotomiflorum. Set-up: key to Soil treatment herbicidal activity, Fall panicum: 0 (no control); 100 (complete control). The gist of the method: as §2
Experiment [14] relates to cocklebur. The experiment is described as above. Details: key to Soil treatment herbicidal activity, Cocklebur: 0 (no control); 100 (complete control). Particulars: 50 g ai/ha, scale 0 (no control) to 100 (complete control). How it is done:
Experimental Example 2: Herbicidal Activity Test Against Upland Field Weeds (Soil Treatment Test) Soil treatment was performed as follows: After filling a square plastic pot having a surface area of 350 cm^2 with sandy loam mixed with 1 g per pot (350 cm^2) of horticultural mixed fertilizer (N:P:K=11:10:11), seeds (10˜15 grains) or rootstocks (2 pieces) of 5 kinds of grassy weeds of sorghum, barnyard grass, quack grass, crabgrass, fall panicum, and 5 kinds of broadleaf weeds of black nightshade, indian jointvetch, velvetleaf, cocklebur, bindweed, which had been stored in a low temperature (6° C.), were sown. The day after sowing, test compound solutions were made by diluting with a preparation solution (including 50% acetone, 0.1% Tween-20) so that the final treatment amount of the test compounds was 50 or 75 g a.i./ha. The prepared test compound solution was used for treating soil surface by hand-spraying 14 mL per pot in a fume hood. After the treatment, it was managed under the same greenhouse conditions (average temperature 30±5° C., light/dark=14/10 hours), and after 14 days (after 21 days if necessary), the external symptoms and efficacy were investigated according to the scale of 0 (no control) to 100 (complete control). The results of Table 8 were obtained by evaluating weed control value to the untreated control by conducting visual assessment.

Experiment [15] concerns bindweed. Briefly: Herbicidal activity test against upland field weeds (foliar treatment test). Particulars: 50 g ai/ha, scale 0-100. The gist of the method: as §1
Experiment [16] relates to quack grass. The experiment is described as above. Details: key to Foliar treatment herbicidal activity, quack grass: 0 (no control); 100 (complete control). Particulars: 50 g ai/ha, scale 0-100. The method in brief:
as §1

Experiment [17] relates to sorghum. Nature of the experiment: Herbicidal activity test against upland field weeds (soil treatment test). Details: key to Soil treatment herbicidal activity, Sorghum: 0 (no control); 100 (complete control). Particulars: 50 g ai/ha, scale 0 (no control) to 100 (complete control); for plant injury at 50 g/ha: Sorghum. The gist of the method:
as §2

Experiment [18] relates to crabgrass. Briefly: Herbicidal activity test against upland field weeds (foliar treatment test). The note with it: Digitaria sanguinalis, 50 g ai/ha, scale 0-100. The gist of the method: as §1
Experiment [19] deals with black nightshade. Described as above. Particulars: Solanum nigrum, 50 g ai/ha, scale 0-100. The method in brief: as §1
Experiment [20] relates to black nightshade. Briefly: Herbicidal activity test against upland field weeds (soil treatment test). Set-up: key to Soil treatment herbicidal activity, black nightshade: 0 (no control); 100 (complete control). Particulars: 50 g ai/ha, scale 0 (no control) to 100 (complete control). The gist of the method:
as §2

Turning to `CC(=O)N(C(=O)c1ccc(C(F)(F)F)nc1COCc1nnn(C)n1)c1nnnn1C` [Compound No. 2-67, N-acetyl-N-(1-methyl-1H-tetrazol-5-yl)-2-(((2-methyl-2H-tetrazol-5-yl)methoxy)methyl)-6-(trifluoromethyl)nicotinamide], the pest or weed control at 50 g/ha was found to be 80% in [1]; 80% in [3]; 70% in experiment [6]; 70% in experiment [8]; 60% in experiment [9]; 95% in experiment [12]. The pest or weed control at 50 g/ha turned out to be 90% in [13], 40% in experiment [15], 70% in experiment [18] and 95% in experiment [19]. In addition, the “Soil treatment herbicidal activity, Indian jointvetch” value in [2] is recorded as 100. Moreover, the “Soil treatment herbicidal activity, barnyard grass” value in [4] was found to be 100. The “Soil treatment herbicidal activity, quack grass” value in [5] stood at 0. Moreover, the plant injury at 50 g/ha in experiment [7] turned out to be 40%; in experiment [17], 50%. Besides, the “Soil treatment herbicidal activity, Crabgrass” value in [10] stood at 100. For the same compound, the “Soil treatment herbicidal activity, velvet leaf” value in experiment [11] was 100. Besides, in [14], the “Soil treatment herbicidal activity, Cocklebur” value amounted to 100. Besides, in [16], the “Foliar treatment herbicidal activity, quack grass” value is recorded as 0.
For `CON(Cc1nnn(C)n1)Cc1nc(C(F)(F)Cl)ccc1C(=O)Nc1nnnn1C` [Compound No. 2-79, 6-(chlorodifluoromethyl)-2-((methoxy((2-methyl-2H-tetrazol-5-yl)methyl)amino)methyl)-N-(1-methyl-1H-tetrazol-5-yl)nicotinamide], the pest or weed control at 50 g/ha was found to be 80% in [1]; 70% in [3]; 80% in experiment [8]; 50% in [9]; 95% in experiment [10] (Digitaria sanguinalis); 60% in [12]. The pest or weed control at 50 g/ha was determined as 98% in [13], 40% in experiment [15], 70% in experiment [18] and 98% in [19]. In addition, in experiment [2], the “Soil treatment herbicidal activity, Indian jointvetch” value was found to be 100. Besides, the “Soil treatment herbicidal activity, barnyard grass” value in [4] was 100. Also, the “Soil treatment herbicidal activity, black nightshade” value in experiment [20] is 100. In addition, the “Soil treatment herbicidal activity, quack grass” value in experiment [5] is given as 0. Besides, the plant injury at 50 g/ha came to 20% in experiment [7] and 30% in experiment [17]. In addition, the “Soil treatment herbicidal activity, velvet leaf” value in [11] was determined as 100. For the same compound, the “Soil treatment herbicidal activity, Cocklebur” value in [14] was determined as 0. Moreover, in [16], the “Foliar treatment herbicidal activity, quack grass” value was found to be 0.
Take `Cn1cnc(COCc2nc(C(F)(F)Cl)ccc2C(=O)Nc2nnnn2C)n1` [Compound No. 2-80, 6-(chlorodifluoromethyl)-2-(((1-methyl-1H-1,2,4-triazol-3-yl)methoxy)methyl)-N-(1-methyl-1H-tetrazol-5-yl)nicotinamide]: the pest or weed control at 50 g/ha in experiment [1] is 98%; in experiment [2], 40%; in experiment [3] it was 70%; in [20] (Solanum nigrum), 98%; in experiment [8], 80%; in [9], 60%. The pest or weed control at 50 g/ha in experiment [11] (Abutilon theophrasti, read-out: Soil treatment herbicidal activity, velvet leaf) was found to be 98%; in experiment [12], 40%; in experiment [15], 40%; in experiment [18], 40%; in [19] it was 98%. Besides, the “Soil treatment herbicidal activity, barnyard grass” value in [4] was 0. In addition, the “Soil treatment herbicidal activity, quack grass” value in experiment [5] came out at 0. Further, the plant injury at 50 g/ha in [7] came to 20%. In addition, the “Soil treatment herbicidal activity, Crabgrass” value in experiment [10] was 0. The “Soil treatment herbicidal activity, Fall panicum” value in experiment [13] was determined as 0. The “Soil treatment herbicidal activity, Cocklebur” value in experiment [14] came out at 0. Besides, the “Foliar treatment herbicidal activity, quack grass” value in experiment [16] amounted to 0. The “Soil treatment herbicidal activity, Sorghum” value in experiment [17] turned out to be 0.
`CON(Cc1nnn(C)n1)Cc1nc(C(F)F)ccc1C(=O)Nc1nnnn1C` [Compound No. 2-86, 6-(difluoromethyl)-2-((methoxy((2-methyl-2H-tetrazol-5-yl)methyl)amino)methyl)-N-(1-methyl-1H-tetrazol-5-yl)nicotinamide]: the pest or weed control at 50 g/ha in [1] was 98%; in experiment [3] it was 80%; in experiment [4] (Echinochloa crus-galli) it was 98%; in experiment [8], 95%; in experiment [9] it was 50%; in experiment [12], 80%. Further, the pest or weed control at 50 g/ha turned out to be 20% in [13], 40% in experiment [15], 70% in [18] and 95% in experiment [19]. In addition, the “Soil treatment herbicidal activity, Indian jointvetch” value in experiment [2] is listed as 100. In addition, the “Soil treatment herbicidal activity, black nightshade” value in experiment [20] is 100. For the same compound, the “Soil treatment herbicidal activity, quack grass” value in experiment [5] turned out to be 0. Further, the plant injury at 50 g/ha in experiment [7] turned out to be 30%. In [10], the “Soil treatment herbicidal activity, Crabgrass” value is listed as 0. The “Soil treatment herbicidal activity, velvet leaf” value in [11] came out at 100. Besides, the “Soil treatment herbicidal activity, Cocklebur” value in experiment [14] was 0. For the same compound, the “Foliar treatment herbicidal activity, quack grass” value in experiment [16] is listed as 0. Besides, the “Soil treatment herbicidal activity, Sorghum” value in [17] was 0.
